This note sets out measurements from ChEMBL document CHEMBL1201862, “PubChem BioAssay data set” (2004).

Molecules are shown by their SMILES.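 Briefly, cells in 96-well plates were exposed to five compound concentrations for 48 h, and endpoints were estimated by linear interpolation. Here, GI50 denotes the concentration required for 50% inhibition of growth.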 Active and inactive are the calls of the source. Rule as the data show it: active = GI50 up to about 1.1 µM and inactive = higher.

Some test systems named below: RPMI-8226; Hs-578T; SR; NCI-H226; UACC-62; HCT-116; SK-MEL-28; SW-620; SK-OV-3; SN12C; TK-10; CAKI-1; HCT-15; HOP-62; EKVX; IGROV-1; M14; SK-MEL-5; NCI-H522.
Common to all, as to experiment: DTP human tumour cell line panel, 48 h

Regarding `CCCCOCCOCCOC1=C(Cl)C(=O)c2c(O)ccc(O)c2C1=O`, the GI50 (commonly the concentration at which growth is held to half of that of the control) in the test with RPMI-8226 is 0.212 µM (active); in the test on Hs-578T it was 2.4 µM (inactive); in the test on SR it was < 0.01 µM (active); in the test on NCI-H226 it was 1.79 µM (inactive); with UACC-62 it was 0.8 µM (active); in the test with HCT-116 it was 0.401 µM (active). Further, the GI50 was 0.357 µM (active) in the test on SK-MEL-28; 0.283 µM (active) with SW-620; 4.25 µM (inactive) in the test on SK-OV-3; 1.61 µM (inactive) in the test with SN12C; 1.32 µM (inactive) in the test on TK-10; 0.209 µM (active) in the test with CAKI-1. The GI50 was 0.388 µM in the test with HCT-15; 1.19 µM (inactive) in the test with HOP-62; 2.57 µM (inactive) in the test on EKVX; 1.35 µM (inactive) in the test with IGROV-1; 0.161 µM (active) with M14; 0.565 µM (active) in the test with SK-MEL-5.
With `OC(Cc1ccc2ccccc2n1)(C(F)(F)F)C(F)(F)F`, the GI50 in the test on RPMI-8226, in the test on Hs-578T, in the test on NCI-H522, in the test on SR, in the test on UACC-62 and with HCT-116 was > 10 µM (inactive) throughout. In addition, the GI50 in the test on SK-MEL-28, in the test on SW-620, in the test on SK-OV-3, in the test with SN12C, in the test with TK-10 and with CAKI-1 was > 10 µM (inactive) throughout. The GI50 in the test on HCT-15 is above 10 µM; in the test on HOP-62, > 10 µM (inactive); in the test on EKVX, > 10 µM (inactive); in the test with IGROV-1 it was > 10 µM (inactive); with M14 it was > 10 µM (inactive); in the test on SK-MEL-5, > 10 µM (inactive).
Regarding `Cc1ccc(S(=O)(=O)C2=C(C(C)C)N=NC2(C)C)cc1`, the GI50 was 9.14 µM (inactive) in the test on RPMI-8226; 57.5 µM (inactive) with Hs-578T; 36 µM (inactive) in the test with NCI-H522; 29.3 µM (inactive) with SR; 61.8 µM (inactive) in the test on NCI-H226; 65.5 µM (inactive) with HCT-116. The GI50 in the test with SK-MEL-28 was > 100 µM (inactive); in the test with SW-620, > 100 µM (inactive); in the test with SN12C, > 100 µM (inactive); in the test on TK-10 it was > 100 µM (inactive); with CAKI-1, 26.7 µM (inactive); in the test on HCT-15, 73.6 µM. In addition, the GI50 was > 100 µM (inactive) in the test with HOP-62; > 100 µM (inactive) in the test with EKVX; 91.4 µM (inactive) in the test with IGROV-1; > 100 µM (inactive) in the test on M14; 79.8 µM (inactive) in the test with SK-MEL-5.
As to `COc1ccc(O)c(/C(C)=N/NC(=S)N(C)C)c1`, the GI50 is 47.4 µM (inactive) in the test with RPMI-8226; > 100 µM (inactive) in the test with Hs-578T; 1.33 µM (inactive) in the test with NCI-H522; 25.8 µM (inactive) in the test with SR; 16.1 µM (inactive) in the test on NCI-H226; 26.1 µM (inactive) with UACC-62. In addition, the GI50 with HCT-116 is 19.6 µM (inactive); with SK-MEL-28, 35.7 µM (inactive); in the test with SW-620, 28.6 µM (inactive); in the test with SK-OV-3, 42.3 µM (inactive); in the test with SN12C, > 44.2 µM (inactive); with CAKI-1, 16.7 µM (inactive). Further, the GI50 in the test with HCT-15 is 5.12 µM; in the test with HOP-62, 21.9 µM (inactive); in the test with EKVX, 31.9 µM (inactive); with IGROV-1, 14.3 µM (inactive); in the test with M14 it was 11.8 µM (inactive); in the test on SK-MEL-5, 9.18 µM (inactive).
Take `[N-]=[N+]=Nc1ccccc1-c1ccccc1[N+](=O)[O-]`: the GI50 is 26 µM (inactive) in the test with RPMI-8226; 30.5 µM (inactive) with Hs-578T; 14.9 µM (inactive) in the test on NCI-H522; 28.1 µM (inactive) with SR; 74.3 µM (inactive) in the test with UACC-62; 43 µM (inactive) in the test on HCT-116. In addition, the GI50 in the test with SK-MEL-28 was > 100 µM (inactive); in the test with SW-620, 48.5 µM (inactive); with SK-OV-3, > 100 µM (inactive); in the test with SN12C, 97.9 µM (inactive); with TK-10 it was 39.4 µM (inactive); in the test on CAKI-1 it was > 100 µM (inactive). Further, the concentration for 50% growth inhibition (GI50) with HCT-15 was 42.6 µM; with HOP-62 it was 87.9 µM (inactive); with EKVX, 39.4 µM (inactive); with IGROV-1, > 100 µM (inactive); in the test on M14, 50.9 µM (inactive).
For `c1csc(-c2nn3c(C45CC6CC(CC(C6)C4)C5)nnc3s2)c1`, the GI50 in the test on RPMI-8226, with Hs-578T, in the test with NCI-H522, with SR, in the test with NCI-H226 and in the test with UACC-62 was > 100 µM (inactive) throughout. In addition, the GI50 in the test on HCT-116, with SK-MEL-28, in the test with SW-620, in the test on SK-OV-3, with SN12C and with CAKI-1 was > 100 µM (inactive) each time. The GI50 is above 100 µM with HCT-15; > 100 µM (inactive) in the test on HOP-62; > 100 µM (inactive) in the test with EKVX; > 100 µM (inactive) in the test on IGROV-1; > 100 µM (inactive) in the test on M14; 93.3 µM (inactive) with SK-MEL-5.
`O=[N+]([O-])C(C=C(n1nnc2ccccc21)n1nnc2ccccc21)=C(n1nnc2ccccc21)n1nnc2ccccc21`: the GI50 in the test with RPMI-8226 is 44.6 µM (inactive); in the test with Hs-578T it was 58.5 µM (inactive); with SR, 23 µM (inactive); in the test with NCI-H226 it was > 100 µM (inactive); in the test with UACC-62, > 100 µM (inactive); in the test on HCT-116, 46.2 µM (inactive). The GI50 is > 100 µM (inactive) with SW-620; > 100 µM (inactive) with SK-OV-3; > 100 µM (inactive) with SN12C; > 100 µM (inactive) in the test on TK-10; > 100 µM (inactive) with CAKI-1; above 100 µM with HCT-15. In addition, the GI50 in the test with HOP-62, with EKVX, in the test with IGROV-1 and with M14 was > 100 µM (inactive) each time.
Turning to `Cc1ccc(S(=O)(=O)NC(=O)Nc2ccc(C(=O)O)c(O)c2)cc1`, the GI50 in the test with RPMI-8226, in the test on Hs-578T, in the test with SR, in the test with NCI-H226, in the test with UACC-62 and in the test with HCT-116 was > 100 µM (inactive) each time. In addition, the GI50 was > 100 µM (inactive) with SW-620; > 100 µM (inactive) in the test on SK-OV-3; > 100 µM (inactive) in the test with TK-10; > 100 µM (inactive) with CAKI-1; above 100 µM in the test with HCT-15; > 100 µM (inactive) with HOP-62. In addition, the GI50 in the test with EKVX, in the test on M14 and with SK-MEL-5 was > 100 µM (inactive) in each case.
`COC1CC(OC2C(C)OC(OC3C(C)OC(OC4C(O)CC(O[C@H]5CC[C@@]6(C)C(=CC[C@]7(O)[C@@H]6C[C@@H](OC(C)=O)[C@@]6(C)[C@]7(O)CC[C@@]6(O)C(C)=O)C5)OC4C)CC3OC)CC2OC)OC(C)C1O` (some centres undefined): the GI50 in the test on RPMI-8226, in the test with Hs-578T, in the test on NCI-H522, with SR, with NCI-H226 and in the test with UACC-62 was > 12.5 µM (inactive) in each case. For the same molecule, the GI50 in the test with HCT-116, with SW-620, with SK-OV-3, with SN12C, in the test with TK-10 and in the test on CAKI-1 was > 12.5 µM (inactive) in each case. For the same molecule, the GI50 is above 12.5 µM in the test with HCT-15; > 12.5 µM (inactive) in the test with HOP-62; > 12.5 µM (inactive) in the test on EKVX; > 12.5 µM (inactive) in the test with IGROV-1; > 12.5 µM (inactive) with M14; > 12.5 µM (inactive) with SK-MEL-5.
Regarding `Nn1c(-c2ccccc2)nn(C(=O)c2ccccc2)c1=O`, the GI50 in the test on RPMI-8226, in the test with Hs-578T, with NCI-H522, in the test with SR, with NCI-H226 and with HCT-116 was > 100 µM (inactive) each time. The GI50 is > 100 µM (inactive) in the test with SK-MEL-28; > 100 µM (inactive) in the test with SW-620; 87.1 µM (inactive) with SN12C; > 100 µM (inactive) in the test with TK-10; above 100 µM in the test on HCT-15; > 100 µM (inactive) with HOP-62. The GI50 with EKVX, in the test on IGROV-1, with M14 and with SK-MEL-5 was > 100 µM (inactive) in each case.
Regarding `Cc1ccc(S[C@@](C=O)(NC(=O)OCc2ccccc2)C(F)(F)F)cc1`, the GI50 in the test on RPMI-8226 was 20.6 µM (inactive); in the test on Hs-578T it was 44.3 µM (inactive); in the test on SR, 14.5 µM (inactive); with NCI-H226, 18.6 µM (inactive); in the test with UACC-62, 19.3 µM (inactive); with HCT-116, 16.1 µM (inactive). Besides, the GI50 in the test with SK-MEL-28 is 25.3 µM (inactive); in the test with SW-620, 21.8 µM (inactive); with SK-OV-3, 45 µM (inactive); in the test with SN12C it was 26.7 µM (inactive); in the test with CAKI-1, 26.1 µM (inactive); in the test on HCT-15, 22.9 µM. Also, the GI50 is 29 µM (inactive) in the test on HOP-62; 22.3 µM (inactive) in the test with EKVX; 18.5 µM (inactive) in the test with IGROV-1; 29.1 µM (inactive) in the test on M14; 23.7 µM (inactive) in the test with SK-MEL-5.
Regarding `COc1cc2oc(=O)ccc2cc1CC=C(C)C` [SUBEROSIN], the GI50 in the test with RPMI-8226 is 19.5 µM (inactive); in the test with Hs-578T, 35.4 µM (inactive); in the test on NCI-H522, 42.3 µM (inactive); in the test on SR it was 21 µM (inactive); in the test with NCI-H226 it was 29.6 µM (inactive); in the test with HCT-116, 38.6 µM (inactive). Also, the GI50 is 76.4 µM (inactive) with SK-MEL-28; 41.3 µM (inactive) with SW-620; 47.6 µM (inactive) in the test on SN12C; 19.9 µM (inactive) in the test on TK-10; 40.6 µM (inactive) in the test on CAKI-1; > 100 µM (inactive) with HOP-62. Moreover, the GI50 in the test with EKVX was 5.81 µM (inactive); with IGROV-1, 62.8 µM (inactive); in the test on M14, > 10 µM (inactive); in the test with SK-MEL-5 it was 37.3 µM (inactive).
